Laboratory results reported in article PMC11813896, “Bis(7)-harmine derivatives as potential multi-target anti-Alzheimer agents” (Frontiers in Chemistry, 2025).
Where two headings read alike, the source gives them in different places.

Key:
GSK-3β = system: GSK-3β; design: method as in Beato et al., 2021; Li et al., 2023; conditions: read-out: GSK-3β (harmine, Figure 1); ref Beato et al., 2021; Li et al., 2023; cited from earlier work
hBuChE = hBuChE (Homo sapiens, UniProt P06276); assay: Ellman's assay, hBuChE inhibition; format: biochemical; conditions: read-out: inhibition of hBuChE in primary screening
Method: The Ellman’s assay was utilized to assess the inhibitory potential of novel bis(7)-harmine derivatives against hAChE and hBuChE. 50 μL of hAChE (0.02 unit/mL) or hBChE (0.02 unit/mL) were incubated with 10 μL of the compound in 96-well plates at 37°C for 6 min. Subsequently, 30 μL of a substrate solution containing acetylthiocholine iodide (ATCI) or butyrylthiocholine iodide (BTCI) at a concentration of 0.01 M was added, and the mixture was further incubated at 37°C for an additional duration of 12 min. Finally, the activity was measured by adding 150 μL of a solution containing 5,5′−dithiobis (2-nitrobenzoic acid) (DTNB) at a concentration of 0.01 M, followed by measuring absorbance at a wavelength of 415 nm using an Evolution 300 PC UV-Vis Spectrophotometer.

BuChE = conditions: read-out: BuChE (harmine, Figure 1); ref Beato et al., 2021; Li et al., 2023; cited from earlier work
recombinant hMAO-B = target: T1, recombinant hMAO-B (Homo sapiens, UniProt P27338); assay: biochemical; conditions: read-out: inhibition of hMAO-B in primary screening
T1 construct: purchased Sigma-Aldrich
T1 sequence (P27338 1-520): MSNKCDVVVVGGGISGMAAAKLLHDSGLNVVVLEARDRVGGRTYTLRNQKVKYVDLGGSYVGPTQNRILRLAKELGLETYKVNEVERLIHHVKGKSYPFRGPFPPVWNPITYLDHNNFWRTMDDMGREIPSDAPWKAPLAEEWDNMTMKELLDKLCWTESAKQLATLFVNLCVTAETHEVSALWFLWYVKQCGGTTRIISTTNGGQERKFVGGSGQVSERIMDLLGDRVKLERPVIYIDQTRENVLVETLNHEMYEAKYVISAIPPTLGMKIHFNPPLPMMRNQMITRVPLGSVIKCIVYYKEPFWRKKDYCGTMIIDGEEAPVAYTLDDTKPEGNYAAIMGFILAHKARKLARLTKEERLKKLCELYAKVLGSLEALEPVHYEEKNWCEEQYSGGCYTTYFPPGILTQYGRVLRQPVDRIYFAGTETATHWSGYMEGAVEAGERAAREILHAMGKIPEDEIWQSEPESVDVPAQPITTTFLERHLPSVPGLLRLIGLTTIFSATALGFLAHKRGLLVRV
Method: Briefly, the compounds under investigation and the reference inhibitor were preincubated with kynuramine at 37°C for 10 min in 96-well microplates. […] The enzymatic reactions were terminated by adding 400 μL of 2 N NaOH and 1,000 μL of water, followed by centrifugation at 16,000 g for 10 min. Subsequently, the concentrations of MAOs that produced 4-hydroxyquinoline were determined by measuring the fluorescence of the supernatant using a Varioskan Flash Multimode Reader ([…]) with excitation and emission wavelengths set at 310 nm and 400 nm, respectively. The IC50 values were calculated from dose-response curves and expressed as the mean ± standard deviation. These values were determined based on at least three independent experiments, each performed in triplicate.

MAO-A = conditions: 2023, cited from earlier work
AChE = conditions: read-out: AChE (harmine, Figure 1); ref Beato et al., 2021; Li et al., 2023; cited from earlier work
hAChE = hAChE (Homo sapiens, UniProt P22303); assay: biochemical; conditions: read-out: inhibition of hAChE in primary screening
Method: 50 μL of hAChE (0.02 unit/mL) or hBChE (0.02 unit/mL) were incubated with 10 μL of the compound in 96-well plates at 37°C for 6 min. Subsequently, 30 μL of a substrate solution containing acetylthiocholine iodide (ATCI) or butyrylthiocholine iodide (BTCI) at a concentration of 0.01 M was added, and the mixture was further incubated at 37°C for an additional duration of 12 min.

Aβ = system: Aβ; design: method as in Boländer et al., 2012; conditions: ref Boländer et al., 2012; read-out: IC50 for inhibiting Aβ aggregation (bis-(arylvinyl)pyrazines); cited from earlier work
Tau = system: Tau; design: method as in Boländer et al., 2012; conditions: ref Boländer et al., 2012; read-out: IC50 for inhibiting tau protein phosphorylation (bis-(arylvinyl)pyrazines); cited from earlier work
MAO-B = system: MAO-B; design: method as in Du et al., 2023; Haider et al., 2018; conditions: ref Du et al., 2023; Haider et al., 2018; read-out: MAO-B (compound 6 of Figure 1); cited from earlier work

hAChE, sequence (P22303 32-614): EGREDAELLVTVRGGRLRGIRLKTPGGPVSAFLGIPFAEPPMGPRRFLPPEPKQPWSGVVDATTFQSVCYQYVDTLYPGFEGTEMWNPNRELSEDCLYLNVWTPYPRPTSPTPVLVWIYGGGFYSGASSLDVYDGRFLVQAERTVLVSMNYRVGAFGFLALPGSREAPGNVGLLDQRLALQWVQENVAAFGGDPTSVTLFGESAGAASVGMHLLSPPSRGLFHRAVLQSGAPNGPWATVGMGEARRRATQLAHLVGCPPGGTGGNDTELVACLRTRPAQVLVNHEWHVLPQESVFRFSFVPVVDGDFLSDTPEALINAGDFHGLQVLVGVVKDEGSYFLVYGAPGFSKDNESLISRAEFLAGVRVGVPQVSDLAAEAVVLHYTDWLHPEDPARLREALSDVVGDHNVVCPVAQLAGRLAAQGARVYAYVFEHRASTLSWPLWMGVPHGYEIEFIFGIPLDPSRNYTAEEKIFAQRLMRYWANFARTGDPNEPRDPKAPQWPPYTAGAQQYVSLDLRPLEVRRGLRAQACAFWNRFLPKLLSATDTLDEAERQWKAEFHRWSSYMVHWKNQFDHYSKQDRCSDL
hBuChE, sequence (P06276 29-602): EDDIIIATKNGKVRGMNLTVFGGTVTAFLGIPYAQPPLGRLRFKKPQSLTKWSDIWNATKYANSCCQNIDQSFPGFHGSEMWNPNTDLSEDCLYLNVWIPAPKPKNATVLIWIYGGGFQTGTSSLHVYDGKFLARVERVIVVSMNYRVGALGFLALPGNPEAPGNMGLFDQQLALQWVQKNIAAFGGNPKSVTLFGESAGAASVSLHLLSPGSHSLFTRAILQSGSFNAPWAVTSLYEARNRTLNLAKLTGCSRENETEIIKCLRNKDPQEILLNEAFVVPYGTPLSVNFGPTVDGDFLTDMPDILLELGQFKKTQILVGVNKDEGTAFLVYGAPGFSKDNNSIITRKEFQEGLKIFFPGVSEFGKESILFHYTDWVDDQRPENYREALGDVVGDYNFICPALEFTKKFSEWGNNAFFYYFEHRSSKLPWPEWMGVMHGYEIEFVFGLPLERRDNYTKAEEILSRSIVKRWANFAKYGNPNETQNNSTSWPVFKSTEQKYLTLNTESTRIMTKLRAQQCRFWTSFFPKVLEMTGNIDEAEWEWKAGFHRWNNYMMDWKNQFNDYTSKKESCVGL

In the case of `COc1ccc2c(c1)[nH]c1c(C)nccc12` [Harmine], the IC50 (GSK-3β) is given as 31.3 µM, the inhibition at 1 µM (hBuChE) is given as 23.5% and the IC50 (BuChE) is given as 75.1 µM. The inhibition at 1 µM (recombinant hMAO-B) was 23.5%, the IC50 (MAO-A; read-out: MAO-A (harmine, Figure 1), ref Beato et al., 2021, Li et al.) was 0.38 µM and the IC50 (AChE) was 9.05 µM. It also gave an inhibition at 1 µM (hAChE) of 30.9%.
In the case of `COc1ccc(/C=C/c2cnc(/C=C/c3ccc(OC)cc3)cn2)cc1` [Compound 3, Bis-(arylvinyl)-pyrazines], the IC50 (Aβ) is given as 0.017 µM and the IC50 (Tau) is given as 0.013 µM.
For `Cc1nccc2c1[nH]c1cc(OCc3cn(Cc4ccccc4Cl)nn3)ccc12` [Compound 6], the IC50 (MAO-A; ref Du et al., Haider et al., 2018, read-out: MAO-A (compound 6 of Figure 1)) is given as 0.83 µM and the IC50 (MAO-B) is given as 0.26 µM.
